Reference: PubChem BioAssay AID2060491 (Molecular Pharmacology Branch, DTP, NCI, 2025)
pIC50: −log10 of the molar value.

Tested on: 857933-349-R-J2-PDC complex spheroids, viability
Experiment: Anticancer human tumor 857933-349-R-J2-PDC patient-derived colon adenocarcinoma cell line growth inhibition [GQUAD]
Conditions: for pIC50: curve of first compound; for viability, T/C: stronger effect = lower value
How it was run: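 Viability of tumor cells grown as complex spheroids with endothelial and stromal cells, exposed to drug combinations. Top concentration at or near clinical Cmax (else 10 microM), diluted in half-log increments.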

[1] = second compound 0.0316 µM, first compound 0.0316 µM
[2] = second compound 0.0316 µM, first compound 0.1 µM
[3] = second compound 0.0316 µM, first compound 0.316 µM
[4] = second compound 0.0316 µM, first compound 1 µM
[5] = second compound 0.0316 µM, first compound 3.16 µM
[6] = second compound 0.0316 µM, first compound 10 µM
[7] = second compound 0.1 µM, first compound 0.0316 µM
[8] = second compound 0.1 µM, first compound 0.1 µM
[9] = second compound 0.1 µM, first compound 0.316 µM
[10] = second compound 0.1 µM, first compound 1 µM
[11] = second compound 0.1 µM, first compound 3.16 µM
[12] = second compound 0.1 µM, first compound 10 µM
[13] = second compound 0.316 µM, first compound 0.0316 µM
[14] = second compound 0.316 µM, first compound 0.1 µM
[15] = second compound 0.316 µM, first compound 0.316 µM
[16] = second compound 0.316 µM, first compound 1 µM
[17] = second compound 0.316 µM, first compound 3.16 µM
[18] = second compound 0.316 µM, first compound 10 µM
[19] = second compound 1 µM, first compound 0.0316 µM
[20] = second compound 1 µM, first compound 0.1 µM
[21] = second compound 1 µM, first compound 0.316 µM
[22] = second compound 1 µM, first compound 1 µM
[23] = second compound 1 µM, first compound 3.16 µM
[24] = second compound 1 µM, first compound 10 µM
[25] = second compound 3.16 µM, first compound 0.0316 µM
[26] = second compound 3.16 µM, first compound 0.1 µM
[27] = second compound 3.16 µM, first compound 0.316 µM
[28] = second compound 3.16 µM, first compound 1 µM
[29] = second compound 3.16 µM, first compound 3.16 µM
[30] = second compound 3.16 µM, first compound 10 µM
[31] = second compound 10 µM, first compound 0.0316 µM
[32] = second compound 10 µM, first compound 0.1 µM
[33] = second compound 10 µM, first compound 0.316 µM
[34] = second compound 10 µM, first compound 1 µM
[35] = second compound 10 µM, first compound 3.16 µM
[36] = second compound 10 µM, first compound 10 µM
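Further: spheroids exposed to compounds for one week before readout.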
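Wherever viability, T/C is given: percent viability relative to vehicle DMSO wells taken as 100%.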

With O=C(c1cc(Cc2n[nH]c(=O)c3ccccc23)ccc1F)N1CCN(C(=O)C2CC2)CC1 + Cc1cnc(CNC(=O)c2c(=O)c3ccc(N4CCCN(C)CC4)nc3n3c2sc2ccccc23)cn1 the pIC50 (second compound 0.0316 µM) was < 5.00, the pIC50 (second compound 0.1 µM) was < 5.00 and the pIC50 (second compound 0.316 µM) was > 7.50. For the same molecule, the pIC50 (second compound 1 µM) was > 7.50, the pIC50 (second compound 3.16 µM) was > 7.50 and the pIC50 (second compound 10 µM) was > 7.50. For the same molecule, the viability, T/C [1] was 101%, the viability, T/C [2] was 88.6% and the viability, T/C [3] was 99.9%. For the same molecule, the viability, T/C [4] was 83.7%, the viability, T/C [5] was 84.8% and the viability, T/C [6] was 77.8%. The viability, T/C [7] was 66%, the viability, T/C [8] was 80.9% and the viability, T/C [9] was 62%. The viability, T/C [10] was 58.4%, the viability, T/C [11] was 68.7% and the viability, T/C [12] was 72.3%. For the same molecule, the viability, T/C [13] was 29.3%, the viability, T/C [14] was 31.1% and the viability, T/C [15] was 26.4%. The viability, T/C [16] was 31.4%, the viability, T/C [17] was 34% and the viability, T/C [18] was 38.4%. For the same molecule, the viability, T/C [19] was 4.96%, the viability, T/C [20] was 4.81% and the viability, T/C [21] was 4.45%. For the same molecule, the viability, T/C [22] was 3.67%, the viability, T/C [23] was 5.47% and the viability, T/C [24] was 6.38%. The viability, T/C [25] was 2.65%, the viability, T/C [26] was 2.92% and the viability, T/C [27] was 2.93%. It also gave a viability, T/C [28] of 3.33%, a viability, T/C [29] of 2.59% and a viability, T/C [30] of 2.87%. For the same molecule, the viability, T/C [31] was 1.22%, the viability, T/C [32] was 2.2% and the viability, T/C [33] was 2.36%. The viability, T/C [34] was 1.84%, the viability, T/C [35] was 2.2% and the viability, T/C [36] was 1.68%.

CC1COCCN1c1cc(C2(O)CC3CCC(C2)O3)c2cnn(-c3ccn[nH]3)c2n1 (stereo not drawn) + CN(C)c1ccc(Nc2c3ccc(NC(=O)CCN4CCCC4)cc3nc3cc(NC(=O)CCN4CCCC4)ccc23)cc1 was tested, and the pIC50 (second compound 0.0316 µM) was 5.03, the pIC50 (second compound 0.1 µM) was < 5.00 and the pIC50 (second compound 0.316 µM) was < 5.00. For the same molecule, the pIC50 (second compound 1 µM) was < 5.00, the pIC50 (second compound 3.16 µM) was < 5.00 and the pIC50 (second compound 10 µM) was 5.51. It also gave a viability, T/C [1] of 104%, a viability, T/C [2] of 90.6% and a viability, T/C [3] of 73.8%. The viability, T/C [4] was 61.5%, the viability, T/C [5] was 51.4% and the viability, T/C [6] was 50.7%. For the same molecule, the viability, T/C [7] was 97.8%, the viability, T/C [8] was 92.4% and the viability, T/C [9] was 75.6%. For the same molecule, the viability, T/C [10] was 60.2%, the viability, T/C [11] was 53.8% and the viability, T/C [12] was 55.4%. For the same molecule, the viability, T/C [13] was 94.1%, the viability, T/C [14] was 82.5% and the viability, T/C [15] was 74.2%. It also gave a viability, T/C [16] of 52.7%, a viability, T/C [17] of 56.9% and a viability, T/C [18] of 54.1%. For the same molecule, the viability, T/C [19] was 92.8%, the viability, T/C [20] was 76% and the viability, T/C [21] was 71%. For the same molecule, the viability, T/C [22] was 54.6%, the viability, T/C [23] was 62.6% and the viability, T/C [24] was 50.1%. The viability, T/C [25] was 88.2%, the viability, T/C [26] was 71.9% and the viability, T/C [27] was 75.3%. The viability, T/C [28] was 55%, the viability, T/C [29] was 59.4% and the viability, T/C [30] was 50%. The viability, T/C [31] was 70.7%, the viability, T/C [32] was 70.2% and the viability, T/C [33] was 63.5%. It also gave a viability, T/C [34] of 54.9%, a viability, T/C [35] of 51.7% and a viability, T/C [36] of 40.8%.

COc1ncnc(C2CC2)c1-c1ncc2cnn(Cc3ccc(-c4nc(C(F)(F)F)cn4C(C)C)cc3)c2n1 + CN(C)c1ccc(Nc2c3ccc(NC(=O)CCN4CCCC4)cc3nc3cc(NC(=O)CCN4CCCC4)ccc23)cc1 was tested, and the pIC50 (second compound 0.0316 µM) was < 5.00, the pIC50 (second compound 0.1 µM) was < 5.00 and the pIC50 (second compound 0.316 µM) was < 5.00. The pIC50 (second compound 1 µM) was < 5.00, the pIC50 (second compound 3.16 µM) was < 5.00 and the pIC50 (second compound 10 µM) was < 5.00. The viability, T/C [1] was 106%, the viability, T/C [2] was 99.8% and the viability, T/C [3] was 102%. It also gave a viability, T/C [4] of 101%, a viability, T/C [5] of 104% and a viability, T/C [6] of 104%. It also gave a viability, T/C [7] of 99.9%, a viability, T/C [8] of 103% and a viability, T/C [9] of 102%. The viability, T/C [10] was 101%, the viability, T/C [11] was 105% and the viability, T/C [12] was 109%. It also gave a viability, T/C [13] of 104%, a viability, T/C [14] of 104% and a viability, T/C [15] of 97.3%. The viability, T/C [16] was 90.8%, the viability, T/C [17] was 104% and the viability, T/C [18] was 99.2%. The viability, T/C [19] was 97.7%, the viability, T/C [20] was 88.5% and the viability, T/C [21] was 94.6%. For the same molecule, the viability, T/C [22] was 92.7%, the viability, T/C [23] was 90.7% and the viability, T/C [24] was 87.6%. The viability, T/C [25] was 83.9%, the viability, T/C [26] was 77.7% and the viability, T/C [27] was 82.5%. The viability, T/C [28] was 74.2%, the viability, T/C [29] was 79.6% and the viability, T/C [30] was 67.3%. The viability, T/C [31] was 64.6%, the viability, T/C [32] was 63.1% and the viability, T/C [33] was 66.2%. For the same molecule, the viability, T/C [34] was 61.6%, the viability, T/C [35] was 56.5% and the viability, T/C [36] was 52.2%.

With C=CC(=O)N1CCN(c2nc(=O)n(-c3c(C)ccnc3C(C)C)c3nc(-c4c(O)cccc4F)c(F)cc23)C(C)C1 (stereo not drawn) + Cc1[nH]c2ccc(F)cc2c1-c1nc2c3cccnc3c3ncccc3c2[nH]1 the pIC50 (second compound 0.0316 µM) was < 5.00, the pIC50 (second compound 0.1 µM) was < 5.00 and the pIC50 (second compound 0.316 µM) was < 5.00. The pIC50 (second compound 1 µM) was < 5.00, the pIC50 (second compound 3.16 µM) was < 5.00 and the pIC50 (second compound 10 µM) was < 5.00. It also gave a viability, T/C [1] of 102%, a viability, T/C [2] of 106% and a viability, T/C [3] of 96.7%. For the same molecule, the viability, T/C [4] was 102%, the viability, T/C [5] was 109% and the viability, T/C [6] was 86%. It also gave a viability, T/C [7] of 98.9%, a viability, T/C [8] of 101% and a viability, T/C [9] of 96.5%. The viability, T/C [10] was 104%, the viability, T/C [11] was 103% and the viability, T/C [12] was 93.4%. The viability, T/C [13] was 95.1%, the viability, T/C [14] was 100% and the viability, T/C [15] was 101%. For the same molecule, the viability, T/C [16] was 97.4%, the viability, T/C [17] was 104% and the viability, T/C [18] was 89%. For the same molecule, the viability, T/C [19] was 101%, the viability, T/C [20] was 106% and the viability, T/C [21] was 96.3%. For the same molecule, the viability, T/C [22] was 104%, the viability, T/C [23] was 108% and the viability, T/C [24] was 89.2%. The viability, T/C [25] was 99%, the viability, T/C [26] was 110% and the viability, T/C [27] was 91.3%. It also gave a viability, T/C [28] of 99%, a viability, T/C [29] of 104% and a viability, T/C [30] of 95.3%. It also gave a viability, T/C [31] of 102%, a viability, T/C [32] of 98.2% and a viability, T/C [33] of 88.2%. The viability, T/C [34] was 92.7%, the viability, T/C [35] was 99% and the viability, T/C [36] was 84.7%.
